Key:
[1] = tested on: Phytophthora infestans; assay: whole plant or invertebrate; format: in vivo; conditions: in Solanum lycopersicum, foliar, read-out: control of Phytophthora infestans compared to untreated control
[2] = tested on: Pythium ultimum; assay: Pythium ultimum / liquid culture (seedling damping off); format: cell-based; conditions: Globisporangium ultimum, liquid culture in PDB, 24 °C, 2-3 days after application, read-out: control of Pythium ultimum (inhibition of growth, photometric) compared to untreated control
Description: Pythium ultimum/Liquid Culture (Seedling Damping Off):
Mycelia fragments and oospores of a newly grown liquid culture of the fungus are directly mixed into nutrient broth (PDB potato dextrose broth). After placing a (DMSO) solution of test compound into a microtiter plate (96-well format), the nutrient broth containing the fungal mycelia/spore mixture is added. The test plates are incubated at 24° C. and the inhibition of growth is determined photometrically 2-3 days after application.

## CCc1cccc(N(C)C(=O)c2ccc3ncc(-c4ccc(NC(=O)OC)cc4)n3c2)c1 [Compound 10, methyl N-[4-[6-[(3-ethylphenyl)-methyl-carbamoyl]imidazo[1,2-a]pyridin-3-yl]phenyl]carbamate]
[1]
  pest or weed control at 200 ppm: ≥ 80%
[2]
  inhibition at 20 ppm: ≥ 80%

## C#Cc1cccc(N(C)C(=O)c2ccc3ncc(-c4ccc(NC(=O)OC)nc4)n3c2)c1 [Compound 43, methyl N-[5-[6-[(3-ethynylphenyl)-methyl-carbamoyl]imidazo[1,2-a]pyridin-3-yl]-2-pyridyl]carbamate]
[1]
  pest or weed control at 200 ppm: ≥ 80%
[2]
  inhibition at 20 ppm: ≥ 80%

## COC(=O)Nc1ccc(-c2cnc3ccc(C(=O)N(C)c4cccc(F)c4)cn23)cn1 [Compound 52, methyl N-[5-[6-[(3-fluorophenyl)-methyl-carbamoyl]imidazo[1,2-a]pyridin-3-yl]-2-pyridyl]carbamate]
[1]
  pest or weed control at 200 ppm: ≥ 80%
[2]
  inhibition at 20 ppm: ≥ 80%

## COC(=O)Nc1ccc(-c2cnc3ccc(C(=O)N(C)c4cncc(OC)c4)cn23)cn1 [Compound 55, methyl N-[5-[6-[(5-methoxy-3-pyridyl)-methyl-carbamoyl]imidazo[1,2-a]pyridin-3-yl]-2-pyridyl]carbamate]
[1]
  pest or weed control at 200 ppm: ≥ 80%
[2]
  inhibition at 20 ppm: ≥ 80%

## COC(=O)Nc1ccc(-c2cnc3ccc(C(=O)N(C)c4cccc(Cl)c4)cn23)cn1 [Compound 62, methyl N-[5-[6-[(3-chlorophenyl)-methyl-carbamoyl]imidazo[1,2-a]pyridin-3-yl]-2-pyridyl]carbamate]
[1]
  pest or weed control at 200 ppm: ≥ 80%
[2]
  inhibition at 20 ppm: ≥ 80%

## COC(=O)Nc1ccc(-c2cnc3ccc(C(=O)N(C)c4ccnc(F)c4)cn23)cn1 [Compound 71, methyl N-[5-[6-[(2-fluoro-4-pyridyl)-methyl-carbamoyl]imidazo[1,2-a]pyridin-3-yl]-2-pyridyl]carbamate]
[1]
  pest or weed control at 200 ppm: ≥ 80%
[2]
  inhibition at 20 ppm: ≥ 80%

## COCCOc1cc(N(C)C(=O)c2ccc3ncc(-c4ccc(NC(=O)OC)nc4)n3c2)ccc1F [Compound 77, methyl N-[5-[6-[[4-fluoro-3-(2-methoxyethoxy)phenyl]-methyl-carbamoyl]imidazo[1,2-a]pyridin-3-yl]-2-pyridyl]carbamate]
[1]
  pest or weed control at 200 ppm: ≥ 80%
[2]
  inhibition at 20 ppm: ≥ 80%

## CCN(C(=O)c1ccc2ncc(-c3ccc(NC(=O)OC)nc3)n2c1)c1ccc(OC)c(OC)c1 [Compound 119, methyl N-[5-[6-[(3,4-dimethoxyphenyl)-ethyl-carbamoyl]imidazo[1,2-a]pyridin-3-yl]-2-pyridyl]carbamate]
[1]
  pest or weed control at 200 ppm: ≥ 80%

## COC(=O)Nc1ccc(-c2cnc3ccc(C(=O)N(CC(C)C)c4ccccc4)cn23)cn1 [Compound 134, methyl N-[5-[6-[isobutyl(phenyl)carbamoyl]imidazo[1,2-a]pyridin-3-yl]-2-pyridyl]carbamate]
[1]
  pest or weed control at 200 ppm: ≥ 80%

## CCOC(=O)CN(C(=O)c1ccc2ncc(-c3ccc(NC(=O)OC)nc3)n2c1)c1ccc(F)cc1 [Compound 150, ethyl 2-(4-fluoro-N-[3-[6-(methoxy-carbonylamino)-3-pyridyl]imidazo[1,2-a]pyridine-6-carbonyl]anilino)acetate]
[2]
  inhibition at 20 ppm: ≥ 80%

## CN(C(=O)c1ccc2ncc(-c3ccc(NC(=O)C4CC4)nc3)n2c1)c1ccc(F)cc1 [Compound 165, 3-[6-(cyclo-propanecarbonylamino)-3-pyridyl]-N-(4-fluorophenyl)-N-methyl-imidazo[1,2-a]pyridine-6-carboxamide]
[2]
  inhibition at 20 ppm: ≥ 80%

## CCC(=O)Nc1ccc(-c2cnc3ccc(C(=O)N(C)c4ccc(F)cc4)cn23)cn1 [Compound 166, N-(4-fluorophenyl)-N-methyl-3-[6-(propanoylamino)-3-pyridyl]imidazo[1,2-a]pyridine-6-carboxamide]
[2]
  inhibition at 20 ppm: ≥ 80%

## CCOC(=O)c1cc(N(C)C(=O)c2ccc3ncc(-c4ccc(NC(=O)OC)nc4)n3c2)ccc1F [Compound 176, ethyl 2-fluoro-5-[[3-[6-(methoxy-carbonylamino)-3-pyridyl]imidazo[1,2-a]pyridine-6-carbonyl]-methyl-amino]benzoate]
[2]
  inhibition at 20 ppm: ≥ 80%

Reference: patent publication US20240425500A1 (priority 2021, published 2024)
